These are literature values, as cited in US8067462B2, “Processes of making sesquiterpenoid tashironin, its analogs and their uses” (The Trustees of Columbia University in the City of New York, priority 2004, dated 2011).

In the data set the test system is neurite growth.

For the compound `C[C@@H]1CC[C@@]2(O)C13CC(=O)C1(C)C2(C)CO[C@]1(O)[C@@H]3O` [11-O-debenzoyltashironin], the “concentration at which neurite growth is promoted” value (promotes neurite growth at concentrations as low as (Huang et al. 2001)) is at least 0.1 µmol. Regarding tashironin, the neurotrophic activity result (reported on isolation from the wood of illicium tashiroi (Fukuyama et al. 1995)) was “inactive”.
